Experimental data as given in patent publication US4753953A, “Pyridonecarboxylic acid derivatives and antibacterial pharmaceutical compositions thereof” (priority 1985, dated 1988).
In brackets after ≈: the same amount, converted by molar mass. Read-outs that look alike come from different tables or passages of the source.

How the values were obtained:
E. faecalis IID 682 = test: MIC, in vitro antibacterial activity (standard strains); type: cell-based; settings: Enterococcus faecalis, IID682; 10^6 cells/ml; Gram +; read-out: MIC
E. coli ATCC 10536 = test: as above; type: cell-based, Escherichia coli; settings: Escherichia coli, ATCC10536; 10^6 cells/ml; Gram -; read-out: MIC
[1] = tested on: Alcaligenes faecalis 0114002; test: as above; type: cell-based; settings: Alcaligenes faecalis, 0114002; 10^6 cells/ml; Gram -; read-out: MIC
[2] = tested on: Morganella morganii IID 602; test: as above; type: cell-based; settings: Morganella morganii, IID602; 10^6 cells/ml; Gram -; read-out: MIC
[3] = tested on: Citrobacter freundii IID 976; test: as above; type: cell-based; settings: Citrobacter freundii, IID976; 10^6 cells/ml; Gram -; read-out: MIC
Pst. micros UPI 5464-1 = test: as above; type: cell-based; settings: Parvimonas micra, UPI54641; 10^6 cells/ml; Gram +; read-out: MIC
[4] = tested on: Veillonella parvula KYA 10790; test: as above; type: cell-based; settings: Veillonella parvula, KYA10790; 10^6 cells/ml; Gram -; read-out: MIC
B. fragilis 25285 = test: as above; type: cell-based, Bacteroides fragilis; settings: Bacteroides fragilis, 25285; 10^6 cells/ml; Gram -; read-out: MIC
F. necrophorum S-45 = test: as above; type: cell-based; settings: Fusobacterium necrophorum, S45; 10^6 cells/ml; Gram -; read-out: MIC
E. coli ML 4707 = test: as above; type: cell-based, Escherichia coli; settings: Escherichia coli
S. pyogenes IID 692 = test: as above; type: cell-based, Streptococcus pyogenes; settings: Streptococcus pyogenes, IID692; 10^6 cells/ml; Gram +; read-out: MIC
[5] = tested on: S. aureus IID 670 (Terajima); test: as above; type: cell-based, Staphylococcus aureus; settings: Staphylococcus aureus, IID670; 10^6 cells/ml; Gram +; read-out: MIC
[6] = tested on: Enterobacter cloacae IID 977; test: as above; type: cell-based; settings: Enterobacter cloacae, IID977; 10^6 cells/ml; Gram -; read-out: MIC
[7] = tested on: Yersinia enterocolitica IID 981; test: as above; type: cell-based; settings: Yersinia enterocolitica, IID981; 10^6 cells/ml; Gram -; read-out: MIC
P. aeruginosa IID 1210 = test: as above; type: cell-based, Pseudomonas aeruginosa; settings: Pseudomonas aeruginosa, IID1210; 10^6 cells/ml; Gram -; read-out: MIC
K. pneumoniae 1-220S = test: as above; type: cell-based, Klebsiella pneumoniae; settings: Klebsiella pneumoniae, 1220S; 10^6 cells/ml; Gram -; read-out: MIC
[8] = tested on: Streptococcus pyogenes (S-8); test: as above; type: cell-based; settings: Streptococcus pyogenes; 10^6 cells/ml; Gram +; read-out: MIC
C. perfringens KYA 13123 = test: microbe, parasite or virus in culture; type: cell-based; settings: Clostridium perfringens, KYA13123
[9] = tested on: Peptococcus magnus KY 017; test: MIC, in vitro antibacterial activity (standard strains); type: cell-based; settings: Finegoldia magna, KY017; 10^6 cells/ml; Gram +; read-out: MIC
B. distasonis 8503 = test: as above; type: cell-based; settings: Parabacteroides distasonis, 8503; 10^6 cells/ml; Gram -; read-out: MIC
[10] = tested on: Salmonella enteritidis IID 604; test: as above; type: cell-based; settings: Salmonella enterica; 10^6 cells/ml; Gram -; read-out: MIC
S. aureus Smith = test: as above; type: cell-based, Staphylococcus aureus; settings: Staphylococcus aureus; 10^6 cells/ml; Gram +; read-out: MIC
[11] = tested on: Eubacterium lentum GAI 5242; test: as above; type: cell-based; settings: Eggerthella lenta, GAI5242; 10^6 cells/ml; Gram +; read-out: MIC
[12] = tested on: Peptostreptococcus anaerobius KYA 27337; test: as above; type: cell-based; settings: Peptostreptococcus anaerobius, KYA27337; 10^6 cells/ml; Gram +; read-out: MIC
S. pneumoniae IID 552 = test: as above; type: cell-based; settings: Streptococcus pneumoniae, IID552; 10^6 cells/ml; Gram +; read-out: MIC
[13] = tested on: B. thetaiotaomicron (0661); test: as above; type: cell-based; settings: Bacteroides thetaiotaomicron; 10^6 cells/ml; Gram -; read-out: MIC
P. aeruginosa IFO 12689 = test: as above; type: cell-based, Pseudomonas aeruginosa; settings: Pseudomonas aeruginosa, IFO12689; 10^6 cells/ml; Gram -; read-out: MIC
P. cepacia GIFU 518 = test: as above; type: cell-based; settings: Burkholderia cepacia, GIFU518
[14] = tested on: Staphylococcus aureus 209 P; test: as above; type: cell-based; settings: Staphylococcus aureus, 209P; 10^6 cells/ml; Gram +; read-out: MIC
B. fragilis 0558 = test: as above; type: cell-based, Bacteroides fragilis; settings: Bacteroides fragilis, 0558; 10^6 cells/ml; Gram -; read-out: MIC
[15] = tested on: Fusobacterium mortiferum 4249; test: as above; type: cell-based; settings: Fusobacterium mortiferum, 4249; 10^6 cells/ml; Gram -; read-out: MIC
[16] = ML4707, 10^6 cells/ml, Gram -, Table 1, read-out: MIC

Q: `CC1CN(c2c(F)cc3c(=O)c(C(=O)O)cn(C4CC4)c3c2Cl)CC1CN` (stereo not drawn) [Example 1, 7-(3-Aminomethyl-4-methyl-1-pyrrolidinyl)-8-chloro-1-cyclopropyl-6-fluoro-1,4-dihydro-4-oxo-3-quinolinecarboxylic acid] was tested. Which MIC (E. faecalis IID 682) did it give?
A: 0.05 µg/mL (≈ 0.127 µM)

Q: What about the MIC (E. coli ATCC 10536) of the same compound?
A: 0.025 µg/mL (≈ 0.0635 µM)

Q: What about the MIC [1] of the same compound?
A: 0.2 µg/mL (≈ 0.508 µM)

Q: What about the MIC [2] of the same compound?
A: 0.1 µg/mL (≈ 0.254 µM)

Q: And the MIC [3]?
A: 0.05 µg/mL (≈ 0.127 µM)

Q: And the MIC (Pst. micros UPI 5464-1)?
A: 0.39 µg/mL (≈ 0.99 µM)

Q: And the MIC [4]?
A: 0.1 µg/mL (≈ 0.254 µM)

Q: What about the MIC (B. fragilis 25285) of the same compound?
A: ≤ 0.05 µg/mL

Q: And the MIC (F. necrophorum S-45)?
A: 0.1 µg/mL (≈ 0.254 µM)

Q: And the MIC (E. coli ML 4707; [16])?
A: 0.025 µg/mL (≈ 0.0635 µM)

Q: And the MIC (S. pyogenes IID 692)?
A: 0.025 µg/mL (≈ 0.0635 µM)

Q: And the MIC [5]?
A: 0.025 µg/mL (≈ 0.0635 µM)

Q: What about the MIC [6] of the same compound?
A: 0.05 µg/mL (≈ 0.127 µM)

Q: What about the MIC [7] of the same compound?
A: 0.05 µg/mL (≈ 0.127 µM)

Q: What about the MIC (P. aeruginosa IID 1210) of the same compound?
A: 0.78 µg/mL (≈ 1.98 µM)

Q: What about the MIC (K. pneumoniae 1-220S) of the same compound?
A: 0.05 µg/mL (≈ 0.127 µM)

Q: And the MIC [8]?
A: 0.0125 µg/mL (≈ 0.0317 µM)

Q: And the MIC (C. perfringens KYA 13123)?
A: ≤ 0.05 µg/mL

Q: What about the MIC [9] of the same compound?
A: ≤ 0.05 µg/mL

Q: And the MIC (B. distasonis 8503)?
A: 0.39 µg/mL (≈ 0.99 µM)

Q: What about the MIC [10] of the same compound?
A: 0.05 µg/mL (≈ 0.127 µM)

Q: And the MIC (S. aureus Smith)?
A: 0.0125 µg/mL (≈ 0.0317 µM)

Q: What about the MIC [11] of the same compound?
A: 0.2 µg/mL (≈ 0.508 µM)

Q: What about the MIC [12] of the same compound?
A: ≤ 0.05 µg/mL

Q: And the MIC (S. pneumoniae IID 552)?
A: 0.0125 µg/mL (≈ 0.0317 µM)

Q: And the MIC [13]?
A: 0.1 µg/mL (≈ 0.254 µM)

Q: And the MIC (P. aeruginosa IFO 12689)?
A: 0.78 µg/mL (≈ 1.98 µM)

Q: And the MIC (P. cepacia GIFU 518)?
A: 0.39 µg/mL (≈ 0.99 µM)

Q: What about the MIC [14] of the same compound?
A: 0.0125 µg/mL (≈ 0.0317 µM)

Q: What about the MIC (B. fragilis 0558) of the same compound?
A: ≤ 0.05 µg/mL

Q: What about the MIC [15] of the same compound?
A: ≤ 0.05 µg/mL

Q: For `CC1CN(c2c(F)cc3c(=O)c(C(=O)O)cn(C4CC4)c3c2Cl)CC1N` (stereo not drawn) [Example 7, 7-(3-Amino-4-methyl-1-pyrrolidinyl)-8-chloro-1-cyclopropyl-6-fluoro-1,4-dihydro-4-oxo-3-quinolinecarboxylic acid], which MIC (E. faecalis IID 682) is on record?
A: 0.1 µg/mL (≈ 0.263 µM)

Q: What about the MIC (E. coli ATCC 10536) of the same compound?
A: 0.0125 µg/mL (≈ 0.0329 µM)

Q: And the MIC [1]?
A: 0.1 µg/mL (≈ 0.263 µM)

Q: What about the MIC [2] of the same compound?
A: 0.05 µg/mL (≈ 0.132 µM)

Q: What about the MIC [3] of the same compound?
A: 0.025 µg/mL (≈ 0.0658 µM)

Q: What about the MIC (Pst. micros UPI 5464-1) of the same compound?
A: 0.1 µg/mL (≈ 0.263 µM)

Q: What about the MIC [4] of the same compound?
A: 0.1 µg/mL (≈ 0.263 µM)

Q: And the MIC (B. fragilis 25285)?
A: 0.05 µg/mL (≈ 0.132 µM)

Q: And the MIC (F. necrophorum S-45)?
A: 0.2 µg/mL (≈ 0.527 µM)

Q: What about the MIC (E. coli ML 4707; [16]) of the same compound?
A: 0.0125 µg/mL (≈ 0.0329 µM)

Q: What about the MIC (S. pyogenes IID 692) of the same compound?
A: 0.1 µg/mL (≈ 0.263 µM)

Q: And the MIC [5]?
A: 0.05 µg/mL (≈ 0.132 µM)

Q: What about the MIC [6] of the same compound?
A: 0.05 µg/mL (≈ 0.132 µM)

Q: What about the MIC [7] of the same compound?
A: 0.025 µg/mL (≈ 0.0658 µM)

Q: And the MIC (P. aeruginosa IID 1210)?
A: 0.39 µg/mL (≈ 1.03 µM)

Q: And the MIC (K. pneumoniae 1-220S)?
A: 0.05 µg/mL (≈ 0.132 µM)

Q: What about the MIC [8] of the same compound?
A: 0.1 µg/mL (≈ 0.263 µM)

Q: What about the MIC (C. perfringens KYA 13123) of the same compound?
A: 0.1 µg/mL (≈ 0.263 µM)

Q: And the MIC [9]?
A: 0.05 µg/mL (≈ 0.132 µM)

Q: What about the MIC (B. distasonis 8503) of the same compound?
A: 0.39 µg/mL (≈ 1.03 µM)

Q: And the MIC [10]?
A: 0.025 µg/mL (≈ 0.0658 µM)

Q: What about the MIC (S. aureus Smith) of the same compound?
A: 0.05 µg/mL (≈ 0.132 µM)

Q: What about the MIC [11] of the same compound?
A: 0.1 µg/mL (≈ 0.263 µM)

Q: And the MIC [12]?
A: 0.2 µg/mL (≈ 0.527 µM)

Q: What about the MIC (S. pneumoniae IID 552) of the same compound?
A: 0.1 µg/mL (≈ 0.263 µM)

Q: What about the MIC [13] of the same compound?
A: 0.2 µg/mL (≈ 0.527 µM)

Q: What about the MIC (P. aeruginosa IFO 12689) of the same compound?
A: 0.39 µg/mL (≈ 1.03 µM)

Q: And the MIC (P. cepacia GIFU 518)?
A: 0.2 µg/mL (≈ 0.527 µM)

Q: What about the MIC [14] of the same compound?
A: 0.025 µg/mL (≈ 0.0658 µM)

Q: And the MIC (B. fragilis 0558)?
A: 0.05 µg/mL (≈ 0.132 µM)

Q: What about the MIC [15] of the same compound?
A: 0.2 µg/mL (≈ 0.527 µM)

Q: What does the source list for `CC1CN(c2c(F)cc3c(=O)c(C(=O)O)cn(C4CC4)c3c2F)CC1N.Cl` (stereo not drawn) [Example 11, 7-(3-Amino-4-methyl-1-pyrrolidinyl)-1-cyclopropyl-6,8-difluoro-1,4-dihydro-4-oxo-3-quinolinecarboxylic acid hydrochloride]?
A: MIC (E. coli ATCC 10536): 0.025 µg/mL; MIC [1]: 0.2 µg/mL; MIC [2]: 0.05 µg/mL; MIC [3]: 0.05 µg/mL; MIC (Pst. micros UPI 5464-1): 0.39 µg/mL; MIC [4]: 0.39 µg/mL; MIC (B. fragilis 25285): 0.39 µg/mL; MIC (F. necrophorum S-45): 0.39 µg/mL; MIC (E. coli ML 4707; ML4707): 0.0125 µg/mL; MIC (E. coli ML 4707; ML4707, Table 2, strain of the mouse infection, read-out: MIC): 0.025 µg/mL; MIC [5]: 0.1 µg/mL; MIC [6]: 0.05 µg/mL; MIC [7]: 0.05 µg/mL; MIC (P. aeruginosa IID 1210): 0.39 µg/mL; MIC (K. pneumoniae 1-220S): 0.05 µg/mL; MIC (C. perfringens KYA 13123): 0.39 µg/mL; MIC [9]: 0.2 µg/mL; MIC (B. distasonis 8503): 0.78 µg/mL; MIC [10]: 0.05 µg/mL; MIC (S. aureus Smith): 0.05 µg/mL; MIC [11]: 0.39 µg/mL; MIC [12]: 0.39 µg/mL; MIC [13]: 0.78 µg/mL; MIC (P. aeruginosa IFO 12689): 0.39 µg/mL; MIC (P. cepacia GIFU 518; 10^6 cells/ml, Gram -, read-out: MIC): 0.39 µg/mL; MIC [14]: 0.05 µg/mL; MIC (B. fragilis 0558): 0.39 µg/mL; MIC [15]: 0.39 µg/mL
